Assay: amounts of β-lactam antibiotic, β-lactamase inhibitor (C18 reverse-phase LC, UV-VIS) and aminoglycoside (HPLC-ELSD) in solution over time
Format: physicochemical
Protocol: The amounts of β-lactam antibiotics and β-lactamase inhibitor were determined using C18 reverse-phase LC and UV-VIS detector (Tianjin Hemay BioTech Co., Ltd., analysis method No. HM-K-03). The content of aminoglycoside antibiotics was measured using reverse-phase HPLC and evaporation-light-scattering detector (ELSD detector) (Tianjin Hemay BioTech Co., Ltd., analysis method No. HM-K-08). The amount of antibiotic component at each time point was expressed as a percentage with respect to the amount at the initial time (herein defined as 100%). The relative amount of each antibiotic component in the composition at each time point was expressed as peak area ratio with respect to the corresponding peak area of an external standard.

CO/N=C(\C(=O)N[C@@H]1C(=O)N2C(C(=O)O)=C(CSc3nc(=O)c(=O)[nH]n3C)CS[C@H]12)c1csc(N)n1 [Ceftriaxone sodium]
amount of component as percentage with respect to the amount at the initial time (Example 7: ceftriaxone sodium 4 g, sulbactam sodium 1 g, gentamicin sulfate 80 mg, citrate pH 6.75, 200 mL water, room temperature (22° C.), Time 0 h): 97.01%
amount of component as percentage with respect to the amount at the initial time (Example 7: ceftriaxone sodium 4 g, sulbactam sodium 1 g, gentamicin sulfate 80 mg, citrate pH 6.75, 200 mL water, room temperature (22° C.), Time 1 h): 100.3%
amount of component as percentage with respect to the amount at the initial time (Example 7: ceftriaxone sodium 4 g, sulbactam sodium 1 g, gentamicin sulfate 80 mg, citrate pH 6.75, 200 mL water, room temperature (22° C.), Time 2 h): 96.40%
amount of component as percentage with respect to the amount at the initial time (Example 7: ceftriaxone sodium 4 g, sulbactam sodium 1 g, gentamicin sulfate 80 mg, citrate pH 6.75, 200 mL water, room temperature (22° C.), Time 4 h): 99.01%
amount of component as percentage with respect to the amount at the initial time (Example 7: ceftriaxone sodium 4 g, sulbactam sodium 1 g, gentamicin sulfate 80 mg, citrate pH 6.75, 200 mL water, room temperature (22° C.), Time 6 h): 98.91%
amount of component as percentage with respect to the amount at the initial time (Example 7: ceftriaxone sodium 4 g, sulbactam sodium 1 g, gentamicin sulfate 80 mg, citrate pH 6.75, 200 mL water, room temperature (22° C.), Time 8 h): 99.53%
amount of component as percentage with respect to the amount at the initial time (Example 8: freeze-dried ceftriaxone sodium, tazobactam sodium, gentamicin sulfate, citrate pH 6.75, 2.5% fructose, 7 days 0° C., in 100 mL water, Time 0 h): 98.75%
amount of component as percentage with respect to the amount at the initial time (Example 8: freeze-dried ceftriaxone sodium, tazobactam sodium, gentamicin sulfate, citrate pH 6.75, 2.5% fructose, 7 days 0° C., in 100 mL water, Time 1 h): 100.1%
amount of component as percentage with respect to the amount at the initial time (Example 8: freeze-dried ceftriaxone sodium, tazobactam sodium, gentamicin sulfate, citrate pH 6.75, 2.5% fructose, 7 days 0° C., in 100 mL water, Time 2 h): 99.97%
amount of component as percentage with respect to the amount at the initial time (Example 8: freeze-dried ceftriaxone sodium, tazobactam sodium, gentamicin sulfate, citrate pH 6.75, 2.5% fructose, 7 days 0° C., in 100 mL water, Time 4 h): 98.87%
amount of component as percentage with respect to the amount at the initial time (Example 8: freeze-dried ceftriaxone sodium, tazobactam sodium, gentamicin sulfate, citrate pH 6.75, 2.5% fructose, 7 days 0° C., in 100 mL water, Time 6 h): 99.27%
amount of component as percentage with respect to the amount at the initial time (Example 8: freeze-dried ceftriaxone sodium, tazobactam sodium, gentamicin sulfate, citrate pH 6.75, 2.5% fructose, 7 days 0° C., in 100 mL water, Time 8 h): 100.5%
amount of component as percentage with respect to the amount at the initial time (Example 9: freeze-dried ceftriaxone sodium, citrate pH 6.75, 7 days 0° C., in 100 mL 5% fructose solution, Time 0 h): 97.27%
amount of component as percentage with respect to the amount at the initial time (Example 9: freeze-dried ceftriaxone sodium, citrate pH 6.75, 7 days 0° C., in 100 mL 5% fructose solution, Time 1 h): 99.38%
amount of component as percentage with respect to the amount at the initial time (Example 9: freeze-dried ceftriaxone sodium, citrate pH 6.75, 7 days 0° C., in 100 mL 5% fructose solution, Time 2 h): 99.95%
amount of component as percentage with respect to the amount at the initial time (Example 9: freeze-dried ceftriaxone sodium, citrate pH 6.75, 7 days 0° C., in 100 mL 5% fructose solution, Time 4 h): 97.81%
amount of component as percentage with respect to the amount at the initial time (Example 9: freeze-dried ceftriaxone sodium, citrate pH 6.75, 7 days 0° C., in 100 mL 5% fructose solution, Time 6 h): 99.03%
amount of component as percentage with respect to the amount at the initial time (Example 9: freeze-dried ceftriaxone sodium, citrate pH 6.75, 7 days 0° C., in 100 mL 5% fructose solution, Time 8 h): 98.51%
amount of component as percentage with respect to the amount at the initial time (Example 19: ceftriaxone sodium 2 g, sulbactam sodium 2 g, gentamicin sulfate 160 mg, citrate pH 6.75, 200 mL water, room temperature, Time 0 h): 97.01%
amount of component as percentage with respect to the amount at the initial time (Example 19: ceftriaxone sodium 2 g, sulbactam sodium 2 g, gentamicin sulfate 160 mg, citrate pH 6.75, 200 mL water, room temperature, Time 1 h): 100.3%
amount of component as percentage with respect to the amount at the initial time (Example 19: ceftriaxone sodium 2 g, sulbactam sodium 2 g, gentamicin sulfate 160 mg, citrate pH 6.75, 200 mL water, room temperature, Time 2 h): 96.40%
amount of component as percentage with respect to the amount at the initial time (Example 19: ceftriaxone sodium 2 g, sulbactam sodium 2 g, gentamicin sulfate 160 mg, citrate pH 6.75, 200 mL water, room temperature, Time 4 h): 99.01%
amount of component as percentage with respect to the amount at the initial time (Example 19: ceftriaxone sodium 2 g, sulbactam sodium 2 g, gentamicin sulfate 160 mg, citrate pH 6.75, 200 mL water, room temperature, Time 6 h): 98.91%
amount of component as percentage with respect to the amount at the initial time (Example 19: ceftriaxone sodium 2 g, sulbactam sodium 2 g, gentamicin sulfate 160 mg, citrate pH 6.75, 200 mL water, room temperature, Time 8 h): 99.53%
amount of component as percentage with respect to the amount at the initial time (Example 20: ceftriaxone sodium 2 g, tazobactam sodium 2 g, gentamicin sulfate 160 mg, citrate pH 6.75, 200 mL water, room temperature, Time 0 h): 98.75%
amount of component as percentage with respect to the amount at the initial time (Example 20: ceftriaxone sodium 2 g, tazobactam sodium 2 g, gentamicin sulfate 160 mg, citrate pH 6.75, 200 mL water, room temperature, Time 1 h): 100.1%
amount of component as percentage with respect to the amount at the initial time (Example 20: ceftriaxone sodium 2 g, tazobactam sodium 2 g, gentamicin sulfate 160 mg, citrate pH 6.75, 200 mL water, room temperature, Time 2 h): 99.97%
amount of component as percentage with respect to the amount at the initial time (Example 20: ceftriaxone sodium 2 g, tazobactam sodium 2 g, gentamicin sulfate 160 mg, citrate pH 6.75, 200 mL water, room temperature, Time 4 h): 98.87%
amount of component as percentage with respect to the amount at the initial time (Example 20: ceftriaxone sodium 2 g, tazobactam sodium 2 g, gentamicin sulfate 160 mg, citrate pH 6.75, 200 mL water, room temperature, Time 6 h): 99.27%
amount of component as percentage with respect to the amount at the initial time (Example 20: ceftriaxone sodium 2 g, tazobactam sodium 2 g, gentamicin sulfate 160 mg, citrate pH 6.75, 200 mL water, room temperature, Time 8 h): 100.5%

Reference: patent publication US20090156518A1, “STABLE PHARMACEUTICAL COMPOSITION COMPRISING BETA-LACTAM ANTIBIOTIC AND BUFFER” (priority 2006, published 2009)
